According to US12533350B2, “Use of melanocortin-1 receptor agonist” (TANABE PHARMA CORPORATION, priority 2022, dated 2026):

Tests used:
[1] = tested on: pre-established BLM-induced skin fibrosis
[2] = tested on: bleomycin (BLM)-induced systemic sclerosis (SSc) model: skin fibrosis and lung inflammation
Procedure: The back of mice was shaved, and the middle of the back was marked with oil-based red ink. Phosphate-buffered saline (PBS) or BLM (Nippon Kayaku) (0.15 mg/0.1 mL per animal) was subcutaneously injected at the marked site once daily from day 0 to day 25. Compound A solutions at 0.1 mL/10 g of body weight were orally administered once daily (approximately 2 hours before the BLM injection) for 29 consecutive days from day 0 until the day before the end of evaluation (day 28).
On day 29, mice were euthanized by inhalation anesthesia with isoflurane, and whole blood and back skin samples were collected. The left lung was dissected, weighed, and immersed in RNAlater solution (Qiagen). The collected blood was separated into serum. The injection site of skin was excised, weighed (wet weight) and immersed in 0.5 mol/L acetic acid solution containing 0.3 mg/mL pepsin to solubilize collagen. The collagen content of the solubilized sample was explored using the QuickZyme Soluble Collagen Assay kit (QuickZyme Biosciences), and absorbance was determined by a microplate reader (VERSAmax, Molecular Devices, LLC). Serum levels of surfactant protein D (SP-D) were assayed using the Rat/Mouse SP-D kit YAMASA EIA (Yamasa Corporation), and absorbance was determined by a microplate reader (VERSAmax, Molecular Devices, LLC). Total RNA of lungs was isolated using RNeasy 96 Universal Tissue Kit (Qiagen) according to the manufacturer's instructions. Real-time PCR was performed using the One Step SYBR PrimeScript PLUS RT-PCR Kit (Takara Bio Inc.) and ABI PRISM 7900HT Real Time PCR System (Applied Biosystems). Takara perfect real time primer pairs (Takara Bio Inc.) were used to analyze the gene expression of chemokine Cc12 (also named as monocyte chemotactic protein-1 (Mcp-1, MA066003)), interleukin-6 (IL-6, MA039013), and hypoxanthine phosphoribosyltransferase (Hprt, MA031262). Quantification was performed using the comparative CT (cycle threshold) method employing Hprt as the housekeeping gene. A serum concentration of endothelin 1 (ET-1) was assayed using Quantikine Endothelin-1 (R & D systems) and the absorbance was measured by the microplate reader (VERSAmax, Molecular Devices, LLC).
Therefore, differences in body weight at each time point were analyzed between the PBS_vehicle and BLM_vehicle groups using Student's t test.

[3] = tested on: dermal fibroblasts from SSc patients; experiment: TGF-β-induced human fibroblast activation, SSc patients; type: cell-based; details: concentration of 1000 nmol/L; TGF-β 10 ng/mL, 24 hours
Excerpt: (§1) Full-thickness skin biopsies were obtained from clinically involved skin of patients affected by dcSSc, who were recruited from the Systemic sclerosis clinic within the Leeds Institute of Rheumatic and Musculoskeletal Medicine (UK). Control skin samples were from healthy donors. All patients with dcSSc and healthy donors provided written informed consent through the stratification for risk of progression in systemic sclerosis (STRIKE SSC), which had been approved by the North-East Research Ethic committee. Patients with SSc fulfilled the 2013 ACR/EULAR classification criteria for SSc and were classified as having dcSSc according to the LeRoy and Medsger criteria.
Dermal fibroblasts were isolated from the skin biopsy samples of healthy donors and SSc patients. […]
(§2) Total RNA was extracted using the Zymo quick RNA mini prep kit according to manufacturer's instructions (Zymo Research Corporation). […] Quantitative RT-PCR was performed in triplicates using SYBR Green RT-PCR Mastermix Kit (Thermo Fisher Scientific) and the ABI PRISM 7500 Fast Real Time PCR System (Applied Biosystems). […]
FIGS. 5(A)-5(B) show the effect of Compound A on human fibroblast activation. […] Each bar represents the mean±SEM of the measured values from three wells. […]

MC1R = MC1R (Homo sapiens, UniProt Q01726); details: described in WO 2020/138481; co-crystal with phosphoric acid; cited from earlier work
Sequence of MC1R (Q01726 whole entry, species assumed): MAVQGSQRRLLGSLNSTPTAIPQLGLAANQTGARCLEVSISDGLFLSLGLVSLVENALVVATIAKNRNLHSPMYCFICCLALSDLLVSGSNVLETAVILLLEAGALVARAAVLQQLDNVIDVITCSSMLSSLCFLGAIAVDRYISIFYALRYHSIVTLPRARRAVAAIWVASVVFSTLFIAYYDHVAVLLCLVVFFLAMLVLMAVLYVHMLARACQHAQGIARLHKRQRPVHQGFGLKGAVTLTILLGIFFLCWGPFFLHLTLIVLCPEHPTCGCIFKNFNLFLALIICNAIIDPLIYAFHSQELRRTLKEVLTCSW

[4] = tested on: dermal fibroblasts from healthy donors; experiment: TGF-β-induced human fibroblast activation, healthy donors; type: cell-based; details: TGF-β 10 ng/mL, 24 hours
Excerpt: as §1
Dermal fibroblasts were isolated from the skin biopsy samples of healthy donors and SSc patients. The skin biopsy samples were minced with a scalpel, placed in plastic culture dishes and covered with Dulbecco's Modified Eagle Medium (DMEM) with 4.5 g/L glucose (Thermo Fisher Scientific) supplemented with 20% fetal calf serum (FCS, Thermo Fisher Scientific), 1% penicillin and streptomycin (Merck), and 1 μg/ml of amphotericin (Thermo Fisher Scientific) and cultured at 37° C. in a humidified atmosphere of 5% CO2. Additional growth medium was added after 3 days with no amphotericin. After 7 days, culture medium was replaced with medium containing 10% FCS and subsequently replenished every 2 to 3 days. When a visible outgrowth of cells was obtained, the fibroblasts were passaged. Briefly, cells were incubated with PBS containing 0.1% EDTA for 5 min, and then detached with trypsin-EDTA solution (Merck), and cultured until 70-80% confluent in DMEM (1 g/L glucose) supplemented with 10% FCS and 1% penicillin and streptomycin. After a subsequent passage, primary cells were retrovirally immortalized using human telomerase reverse transcriptase. […]
as §2
FIGS. 5(A)-5(B) show the effect of Compound A on human fibroblast activation. Dermal fibroblasts from a healthy individual or an SSc patient were grown to confluence, and placed under starvation for 24 hours in a medium supplemented with 1% fetal bovine serum (A: mRNA expression of ACTA2 and COL1A1 in dermal fibroblasts of healthy individuals was measured by real-time PCR, and normalized for the GAPDH expression level. B: mRNA expression of ACTA2 and COL1A1 in dermal fibroblasts of SSc patients was measured for by real-time PCR, and normalized for the GAPDH expression level). Each bar represents the mean±SEM of the measured values from three wells. […]

[5] = Compound A at 3 and 10 mg/kg orally once daily day 22-42, samples day 43
[6] = Compound A at ≥0.3 mg/kg orally once daily day 0-28, measured day 29
[7] = Compound A at ≥0.3 mg/kg orally once daily day 0-28, measured day 29, relative to Hprt

Question: With `COC[C@H]1CN(C(=O)[C@]2(F)CN(C3CCCC3)C[C@H]2c2ccc(OC)cc2)C[C@@H]1c1ccc(C(F)(F)F)cc1N1CCC(C(=O)O)CC1` [Compound A, 1-{2-[(3S,4R)-1-{[(3R,4R)-1-cyclopentyl-3-fluoro-4-(4-methoxyphenyl)pyrrolidin-3-yl]carbonyl}-4-(methoxymethyl)pyrrolidin-3-yl]-5-(trifluoromethyl)phenyl}piperidine-4-carboxylic acid] as the compound, how does the “BLM-induced increase of skin thickness” value [1, 5] read?
Answer: significantly inhibited

Question: What about the “BLM-induced increase of αSMA-positive myofibroblasts in the dermis” value [1, 5] of the same compound?
Answer: significantly inhibited

Question: And the “BLM-induced loss of dermal white adipose tissue (Masson's trichrome staining)” value ([1]; Compound A orally once daily day 22-42, samples day 43)?
Answer: inhibited

Question: What about the “progression of fibrosis after 3 weeks (versus group 2: BLM 3 weeks then saline 3 weeks)” value ([1]; Compound A orally once daily during last 3 weeks of 6-week BLM) of the same compound?
Answer: almost completely inhibited

Question: What about the “BLM-induced increase of collagen content of the skin” value [2, 6] of the same compound?
Answer: inhibited significantly

Question: What about the “BLM-induced increase of serum concentration of ET-1” value [2, 6] of the same compound?
Answer: inhibited significantly

Question: And the “BLM-induced increase of serum level of SP-D” value [2, 6]?
Answer: inhibited significantly

Question: What about the “BLM-induced increase of wet weight of the left lung” value [2, 6] of the same compound?
Answer: inhibited significantly

Question: And the “BLM-induced increase of IL-6 mRNA expression in the lung” value [2, 7]?
Answer: inhibited significantly

Question: What about the “BLM-induced increase of Mcp-1 mRNA expression in the lung” value [2, 7] of the same compound?
Answer: inhibited significantly

Question: And the “BLM-induced decrease of body weight” value ([2]; Compound A at ≥0.3 mg/kg orally once daily, day 0 to day 29)?
Answer: significantly improved

Question: And the “TGF-β-induced increase in αSMA mRNA expression” value [3]?
Answer: suppressed

Question: And the “MCR-activating action, especially MC1R-activating action” value (MC1R)?
Answer: excellent MCR-activating action

Question: What about the “TGF-β-induced αSMA (ACTA2) mRNA elevation” value ([4]; concentration-dependent, normalized to GAPDH) of the same compound?
Answer: inhibited

Question: What about the “TGF-β-induced COL1A1 mRNA expression” value ([4]; normalized to GAPDH) of the same compound?
Answer: no effect

Question: And the “TGF-β-induced increase in αSMA mRNA expression” value ([4]; concentration of 1000 nmol/L)?
Answer: suppressed
